Measurements published in ChEMBL document CHEMBL4421719, “Modulation of k2p channels” (2016).
Active and inactive are the calls of the source. The calls are words filed in the database; no cut-off is given here.

How the values were obtained:
Type in all cases: cell-based
[1] = biological target: T1, Potassium channel subfamily K member 2 (Homo sapiens) (UniProt O95069); assay: Activation of K2P2.1 (unknown origin) expressed in HEK293T cell membranes in outside-out patch configuration assessed as effect on channel currents by measuring time of half-maximal activation at 20 uM by two-electrode voltage clamp assay relative to control
T1 sequence (whole entry): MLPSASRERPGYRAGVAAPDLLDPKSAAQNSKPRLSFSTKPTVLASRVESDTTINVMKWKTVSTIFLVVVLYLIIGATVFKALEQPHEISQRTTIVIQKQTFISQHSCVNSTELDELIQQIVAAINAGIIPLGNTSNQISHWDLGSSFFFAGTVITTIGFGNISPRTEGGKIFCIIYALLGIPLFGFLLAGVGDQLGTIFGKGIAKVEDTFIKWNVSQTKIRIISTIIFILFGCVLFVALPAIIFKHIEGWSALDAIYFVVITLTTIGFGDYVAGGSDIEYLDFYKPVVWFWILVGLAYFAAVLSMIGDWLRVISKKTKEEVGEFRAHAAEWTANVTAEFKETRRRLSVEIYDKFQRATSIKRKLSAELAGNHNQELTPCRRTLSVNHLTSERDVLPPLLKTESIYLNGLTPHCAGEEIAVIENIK

[2] = biological target: T1, Potassium channel subfamily K member 2 (Homo sapiens); assay: Activation of K2P2.1 (unknown origin) expressed in HEK293T cells assessed as effect on channel currents at -40 mV holding potential at 100 uM by two-electrode voltage clamp assay relative to control
[3] = biological target: Potassium channel subfamily K member 9 (Homo sapiens) (UniProt Q9NPC2); assay: Activation of K2P9.1 (unknown origin) expressed in Xenopus oocytes assessed as effect on channel currents at 150 uM at -80 mV holding potential by two-electrode voltage clamp assay relative to control
Chain of Potassium channel subfamily K member 9 (Homo sapiens) (Q9NPC2 whole entry): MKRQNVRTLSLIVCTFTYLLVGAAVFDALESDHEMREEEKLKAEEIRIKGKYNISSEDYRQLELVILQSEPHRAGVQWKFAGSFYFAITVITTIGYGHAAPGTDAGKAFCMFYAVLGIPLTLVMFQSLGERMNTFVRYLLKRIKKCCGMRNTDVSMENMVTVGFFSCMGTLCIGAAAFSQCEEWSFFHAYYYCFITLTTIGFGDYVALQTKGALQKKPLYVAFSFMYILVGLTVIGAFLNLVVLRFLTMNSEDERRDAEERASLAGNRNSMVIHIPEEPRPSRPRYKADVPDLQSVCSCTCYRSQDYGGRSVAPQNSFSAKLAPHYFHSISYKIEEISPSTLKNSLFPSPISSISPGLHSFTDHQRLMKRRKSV

[4] = system: Potassium channel subfamily K member 2 (Homo sapiens), O95069 [UNDEFINED MUTATION]; assay: Activation of K2P2.1 W275S mutant (unknown origin) expressed in Xenopus oocytes assessed as effect on channel currents at 50 uM at -80 mV holding potential by two-electrode voltage clamp assay
[5] = biological target: T2, Potassium channel subfamily K member 18 (Homo sapiens) (UniProt Q7Z418); assay: Activation of K2P18.1 (unknown origin) expressed in Xenopus oocytes assessed as effect on channel currents at -80 mV holding potential by two-electrode voltage clamp assay relative to control
T2 sequence (whole entry): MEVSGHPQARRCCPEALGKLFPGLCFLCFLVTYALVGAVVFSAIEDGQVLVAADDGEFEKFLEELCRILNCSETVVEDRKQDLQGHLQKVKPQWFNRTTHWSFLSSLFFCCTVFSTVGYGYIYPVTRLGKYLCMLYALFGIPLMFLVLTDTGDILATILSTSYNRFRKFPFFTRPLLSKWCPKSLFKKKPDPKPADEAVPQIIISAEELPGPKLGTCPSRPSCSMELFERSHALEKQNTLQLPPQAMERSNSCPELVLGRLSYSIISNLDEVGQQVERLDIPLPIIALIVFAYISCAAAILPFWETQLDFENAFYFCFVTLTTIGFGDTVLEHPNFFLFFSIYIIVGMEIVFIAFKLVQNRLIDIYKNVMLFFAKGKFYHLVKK

[6] = biological target: T3, Potassium channel subfamily K member 10 (Homo sapiens) (UniProt P57789); assay: Activation of K2P10.1 (unknown origin) expressed in Xenopus oocytes assessed as effect on channel currents at -80 mV holding potential by two-electrode voltage clamp assay relative to control
T3 sequence (whole entry): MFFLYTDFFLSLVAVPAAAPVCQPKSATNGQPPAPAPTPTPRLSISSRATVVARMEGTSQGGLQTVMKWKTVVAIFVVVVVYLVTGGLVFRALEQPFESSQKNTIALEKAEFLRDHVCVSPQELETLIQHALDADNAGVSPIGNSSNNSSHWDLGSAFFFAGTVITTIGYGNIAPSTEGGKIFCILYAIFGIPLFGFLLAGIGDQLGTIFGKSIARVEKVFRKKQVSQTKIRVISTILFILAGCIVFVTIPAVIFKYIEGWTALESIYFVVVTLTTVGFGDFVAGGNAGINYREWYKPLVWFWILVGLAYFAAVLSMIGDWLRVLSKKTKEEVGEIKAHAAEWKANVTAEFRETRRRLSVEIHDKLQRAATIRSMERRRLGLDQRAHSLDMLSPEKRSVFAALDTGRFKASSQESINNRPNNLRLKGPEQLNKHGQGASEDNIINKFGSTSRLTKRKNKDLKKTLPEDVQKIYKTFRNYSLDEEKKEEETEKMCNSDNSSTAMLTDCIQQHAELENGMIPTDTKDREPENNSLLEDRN

[7] = biological target: T1, Potassium channel subfamily K member 2 (Homo sapiens); assay: Reversible activation of K2P2.1 (unknown origin) expressed in HEK293T cells assessed as effect on channel currents at -0 mV holding potential at 5 to 20 uM by two-electrode voltage clamp assay relative to control
[8] = biological target: T1, Potassium channel subfamily K member 2 (Homo sapiens); assay: Activation of K2P2.1 (unknown origin) expressed in whole HEK293T cells in assessed as effect on channel currents by measuring time of half-maximal activation at 20 uM by two-electrode voltage clamp assay relative to control
[9] = Activation of K2P2.1 3G mutant (unknown origin) expressed in Xenopus oocytes assessed as effect on channel currents at -80 mV holding potential by two-electrode voltage clamp assay; conditions: Homo sapiens
[10] = biological target: T1, Potassium channel subfamily K member 2 (Homo sapiens); assay: Activation of K2P2.1 (unknown origin) expressed in HEK293T cell membranes in outside-out patch configuration assessed as effect on channel currents at 20 uM by two-electrode voltage clamp assay relative to control
[11] = biological target: Potassium channel subfamily K member 9 (Homo sapiens) (UniProt Q9NPC2); assay: Activation of K2P9.1 (unknown origin) expressed in Xenopus oocytes assessed as effect on channel currents at -80 mV holding potential at 100 uM by two-electrode voltage clamp assay relative to control
[12] = biological target: T1, Potassium channel subfamily K member 2 (Homo sapiens); assay: Activation of K2P2.1 (unknown origin) expressed in whole HEK293T cells assessed as effect on channel currents by measuring time of return to baseline following compound washout at 20 uM by two-electrode voltage clamp assay relative to control
[13] = biological target: T1, Potassium channel subfamily K member 2 (Homo sapiens); assay: Activation of K2P2.1 (unknown origin) expressed in HEK293T cell membranes in inside-out patch configuration assessed as effect on channel currents by measuring time of return to baseline following compound washout at 20 uM by two-electrode voltage clamp assay relative to control
[14] = biological target: Potassium channel subfamily K member 3 (Homo sapiens) (UniProt O14649); assay: Activation of K2P3.1 (unknown origin) expressed in Xenopus oocytes assessed as effect on channel currents at -80 mV holding potential by two-electrode voltage clamp assay relative to control
Chain of Potassium channel subfamily K member 3 (Homo sapiens) (O14649 whole entry, looked up): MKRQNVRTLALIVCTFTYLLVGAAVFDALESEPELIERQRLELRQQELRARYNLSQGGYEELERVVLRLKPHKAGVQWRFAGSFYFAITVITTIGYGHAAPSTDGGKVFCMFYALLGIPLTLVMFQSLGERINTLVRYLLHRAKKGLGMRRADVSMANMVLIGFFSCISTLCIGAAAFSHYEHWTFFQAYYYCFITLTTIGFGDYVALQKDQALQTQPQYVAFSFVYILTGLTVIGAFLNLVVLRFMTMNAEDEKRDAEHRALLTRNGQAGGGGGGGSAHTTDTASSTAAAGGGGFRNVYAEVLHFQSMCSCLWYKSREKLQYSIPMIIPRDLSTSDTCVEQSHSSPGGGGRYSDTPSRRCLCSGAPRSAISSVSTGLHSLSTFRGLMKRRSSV

[15] = biological target: T1, Potassium channel subfamily K member 2 (Homo sapiens); assay: Activation of K2P2.1 (unknown origin) expressed in HEK293T cells assessed as effect on channel currents at -40 mV holding potential by two-electrode voltage clamp assay relative to control
[16] = system: Potassium channel subfamily K member 2 (Homo sapiens), O95069 [UNDEFINED MUTATION]; assay: Activation of K2P2.1 W275S mutant (unknown origin) expressed in Xenopus oocytes assessed as effect on channel currents at -80 mV holding potential by two-electrode voltage clamp assay relative to control

SMILES: CC1(C)c2cc(Cl)ccc2N(CCc2nnn[nH]2)c2ccc(Cl)cc21
- T1/2 [1]: 4.6 s
- Emax [2]: 11.4%
- Emax [3]: 2.1
- Activity [4]: inactive
- Emax [5]: 0.9
- Emax [6]: 11.4
- Activity [7]: Active
- T1/2 [8]: 4.1 s
- EC50 [9]: 49.4 µM
- Activity [10]: Active
- Emax [11]: 2%
- T1/2 [12]: 3.9 s
- T1/2 [13]: 22 s
- Emax [14]: 1.1
- Emax [15]: 11.4
- Emax [16]: 5.1
